This is an account of results in US20030109443A1, “Diagnosing, treating, and preventing cancer using cables” (priority 2001, published 2003).

Experiment [1] has as its system Cables mRNA levels in HES cells. The experiment can be described thus: Northern analysis of Cables mRNA after hormone treatment, HES cells. The experiment is classed as cell-based, human. The settings on record: vs untreated controls. The source says:
FIGS. 15A and 15B are images showing northern analysis of Cables mRNA levels in HES cells (FIG. 15A) and SK-UT2 cells (FIG. 15B) following progesterone treatment.
FIGS. 16A and 16B are images showing northern analysis of Cables mRNA levels in HES cells (FIG. 16A) and SK-UT2 cells (FIG. 16B) following progesterone or estrogen treatment.
(§1) Cell lines have been used to investigate the effect of hormonal regulation on Cables expression, as well as the effect of Cables overexpression on these cells. We have isolated RNA and protein from HES, Ishikawa, and SK-UT2 endometrial cells lines for analysis. The influence of progesterone and estrogen on Cables expression was evaluated in these cells. […] Western analysis confirmed that a protein product was present. Conversely, estrogen reduced the levels of Cables mRNA expression in these cell lines (FIG. 16A). There is was no hormonal effect on Cables mRNA expression in SK-UT2 cells, which are derived from a G3 human uterine cancer (FIGS. 15B and 16B).

Experiment [2] concerns Cables mRNA levels in Ishikawa cells. The experiment is described as follows: Cables mRNA after hormone treatment, Ishikawa cells. Particulars: vs untreated controls. The format is cell-based. Here is the method:
as §1

The target of the next experiment is cdk2 (UniProt P24941). The experiment can be described thus: cell-based or functional assay.

Sequence of Cables (full length, expressed from a transfected construct) (Q9ESJ1 whole entry): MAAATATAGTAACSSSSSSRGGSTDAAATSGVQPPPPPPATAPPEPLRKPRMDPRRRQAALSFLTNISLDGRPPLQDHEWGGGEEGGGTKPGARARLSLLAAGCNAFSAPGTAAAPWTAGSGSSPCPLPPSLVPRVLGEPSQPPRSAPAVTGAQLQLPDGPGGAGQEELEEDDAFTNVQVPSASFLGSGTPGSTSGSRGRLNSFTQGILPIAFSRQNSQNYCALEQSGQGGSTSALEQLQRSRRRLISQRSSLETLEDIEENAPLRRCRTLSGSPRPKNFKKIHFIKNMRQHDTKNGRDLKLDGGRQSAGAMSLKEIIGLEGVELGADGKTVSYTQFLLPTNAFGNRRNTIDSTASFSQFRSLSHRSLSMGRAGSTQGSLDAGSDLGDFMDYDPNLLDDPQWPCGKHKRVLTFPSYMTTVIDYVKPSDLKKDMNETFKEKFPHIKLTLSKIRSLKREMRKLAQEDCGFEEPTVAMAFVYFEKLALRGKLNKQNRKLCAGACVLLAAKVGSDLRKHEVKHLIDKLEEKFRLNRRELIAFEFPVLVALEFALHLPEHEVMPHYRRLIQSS
Sequence of Wee1 (P30291 whole entry): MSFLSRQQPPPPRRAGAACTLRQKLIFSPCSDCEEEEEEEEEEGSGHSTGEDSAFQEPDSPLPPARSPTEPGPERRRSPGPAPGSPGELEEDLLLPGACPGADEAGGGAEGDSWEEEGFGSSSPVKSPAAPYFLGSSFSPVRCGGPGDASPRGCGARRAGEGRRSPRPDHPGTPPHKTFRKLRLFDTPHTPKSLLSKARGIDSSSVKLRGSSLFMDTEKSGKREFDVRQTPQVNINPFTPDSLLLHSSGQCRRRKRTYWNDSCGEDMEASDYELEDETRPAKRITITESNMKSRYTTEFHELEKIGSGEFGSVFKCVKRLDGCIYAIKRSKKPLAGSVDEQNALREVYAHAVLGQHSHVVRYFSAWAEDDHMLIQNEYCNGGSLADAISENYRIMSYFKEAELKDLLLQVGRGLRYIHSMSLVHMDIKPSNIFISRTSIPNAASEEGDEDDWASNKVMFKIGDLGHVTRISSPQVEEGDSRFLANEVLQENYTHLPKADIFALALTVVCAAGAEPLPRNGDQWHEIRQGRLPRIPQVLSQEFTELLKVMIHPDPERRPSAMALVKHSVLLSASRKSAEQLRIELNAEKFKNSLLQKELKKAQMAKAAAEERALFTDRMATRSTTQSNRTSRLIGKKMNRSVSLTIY

For `CC(=O)[C@H]1CC[C@H]2[C@@H]3CCC4=CC(=O)CC[C@]4(C)[C@H]3CC[C@]12C` [Progestin, progesterone], the “Cables mRNA levels” value in experiment [1] and in experiment [2] was “dose dependent elevation” throughout.

In turn, “Cables (full length, expressed from a transfected construct)” displayed a Y15-phosphorylated cdk2 in stable Cables cell lines against control cell lines (cdk2 immunoprecipitation, phospho-Tyr15 antibody) with cdk2 of 5 fold.

Regarding “Wee1 (from UniProt P30291 1-646) (enzyme)”, the level of tyrosine phosphorylation of cdk2 (cdk2 immunoprecipitation, antiphosphotyrosine western blot, COS7 cells coexpressing Cables and Wee1) (times basal level) with cdk2 turned out to be 30.

On to estrogen, for which the “Cables mRNA levels” value in experiment [1] and in experiment [2] was “reduced” in each case.
